For one data set, the system named is Zucker obese fa/fa rats. The experiment in a line: Oral Glucose Tolerance Test (OGTT). The data set is classed as in vivo, rat. The protocol:
(2) Oral Glucose Tolerance Test (OGTT)
Oral glucose tolerance tests were done on conscious Zucker obese fa/fa rats (age 12-13 weeks or older) fed a high fat diet (45% kcal fat) for at least two weeks prior to experimentation. The animals were fasted for 2 hours before use for experiments. A test compound or a vehicle was given orally 120 minutes before oral administration of a glucose solution at a dose of 2 g/kg body weight. Blood glucose levels were measured using a Accucheck glucometer from tail bled samples taken at different time points before and after administration of glucose (time course of […]). A time curve of the blood glucose levels was generated and the area-under-the-curve (AUC) for 120 minutes was calculated (the time of glucose administration being time zero). Percent reduction in glucose excursion was determined using the AUC in the vehicle-control group as zero percent reduction.

A short description of the next data set: Oral exposure. The note with it: compared with Example II107 in WO 03/015774. The format is in vivo.
For data set [1], the target named is T1, recombinant human pancreatic GLK (Homo sapiens, UniProt P35557).
T1 sequence (P35557 1-465): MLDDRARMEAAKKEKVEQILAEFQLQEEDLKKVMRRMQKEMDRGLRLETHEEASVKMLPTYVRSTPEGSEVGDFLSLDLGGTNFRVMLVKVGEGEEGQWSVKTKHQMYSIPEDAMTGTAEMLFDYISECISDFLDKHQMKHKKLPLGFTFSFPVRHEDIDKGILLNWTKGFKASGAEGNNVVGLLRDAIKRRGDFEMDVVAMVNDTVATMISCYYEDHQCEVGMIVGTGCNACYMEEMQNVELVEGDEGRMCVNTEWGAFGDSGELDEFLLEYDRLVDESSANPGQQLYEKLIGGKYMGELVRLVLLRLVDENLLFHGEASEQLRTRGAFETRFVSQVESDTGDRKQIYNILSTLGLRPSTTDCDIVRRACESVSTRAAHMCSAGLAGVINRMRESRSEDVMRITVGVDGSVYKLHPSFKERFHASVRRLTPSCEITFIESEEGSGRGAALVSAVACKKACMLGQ
The data set can be described thus: biochemical.

The target of data set [2] is T1, recombinant human pancreatic GLK. The experiment in a line: Enzymatic activity of recombinant human pancreatic GLK (G-6-P dehydrogenase coupled, OD 340 nm). The conditions noted are these: comparison in words.

Usually EC50 stands for the concentration giving half of the maximal effect. For the compound `Cc1nsc(NC(=O)c2cc(Oc3ccc(S(C)(=O)=O)cc3)cc(O[C@@H](C)CO)c2)n1` [Example 3a, 3-[(1S)-2-hydroxy-1-methylethoxy]-5-[4-(methylsulfonyl)phenoxy]-N-(3-methyl-1,2,4-thiadiazol-5-yl)benzamide], the “OGTT activity (percent reduction in glucose excursion, AUC vs vehicle)” value in the data set with Zucker obese fa/fa rats (3 mg/kg, given orally) turned out to be 17%. Further, the oral exposure entry in the data set “Oral exposure” was “superior oral exposure”. In data set [1], the EC50 was found to be 50 nM. The “EC50 values, Example 3a compared with Example II107 in WO 03/015774” value in data set [2] was “broadly similar”.

As a reminder, the melting point is the temperature, or range, at which the solid turns liquid. In turn, `C[C@@H](CO)Oc1cc(Oc2ccc(C(=O)N3CCC3)cc2F)cc(C(=O)Nc2ccn(C)n2)c1` [Example 4, 3-[4-(Azetidin-1-ylcarbonyl)-2-fluorophenoxy]-5-[(1S)-2-hydroxy-1-methylethoxy]-N-(1-methyl-1H-pyrazol-3-yl)benzamide] displayed a melting point of 142 °C.

The compound `CCn1ccc(NC(=O)c2cc(Oc3ccc(C(=O)N4CCC4)cc3F)cc(O[C@@H](C)CO)c2)n1` [Example 9, 3-{[4-(Azetidin-1-ylcarbonyl)-2-fluorophenyl]oxy}-N-(1-ethyl-1H-pyrazol-3-yl)-5-{[(1S)-2-hydroxy-1-methylethyl]oxy}benzamide] returned a melting point of 124 °C.

As to `Cc1nsc(NC(=O)c2cc(Oc3ccc(C(=O)N4CCC4)cc3F)cc(O[C@@H](C)CO)c2)n1` [Example 27, 3-[4-(Azetidin-1-ylcarbonyl)-2-fluorophenoxy]-5-[(1S)-2-hydroxy-1-methylethoxy]-N-(3-methyl-1,2,4-thiadiazol-5-yl)benzamide], the melting point was 173 to 175 °C.

On to `Cc1cnc(NC(=O)c2cc(OCCc3ccsc3)cc(OC(C)C)c2)s1` [Example II107, reference compound], for which, in the data set on Zucker obese fa/fa rats (10 mg/kg), the OGTT activity result is “not active”.

Take `C[C@@H](CO)Oc1cc(Oc2ccc(S(C)(=O)=O)cc2)cc(C(=O)Nc2ccn(C)n2)c1` [compound 3, 3-[(1S)-2-Hydroxy-1-methylethoxy]-N-(1-methyl-1H-pyrazol-3-yl)-5-[4-(methylsulfonyl)phenoxy]benzamide]: the melting point lay within 126 to 132 °C.

The values are drawn from patent publication US7745475B2, “Heteroaryl benzamide derivatives as GLK activators” (AstraZeneca AB, priority 2004, dated 2010).
